Assay results reported in PMC12241633, “Irinotecan alleviates chemoresistance to anthracyclines through the inhibition of AARS1-mediated BLM lactylation and homologous recombination repair” (Signal Transduction and Targeted Therapy, 2025).

Assays:
Assay in all cases: SPR (Biacore T200), multicycle kinetics, global […] Langmuir fit
Assay type in all cases: binding
[1] = target: T1, BLM (Homo sapiens, UniProt P54132, K31R)
T1 construct: recombinant, pET28a-sumo in E. coli BL21(DE3); amine-coupled to CM5 chip
T1 sequence (P54132 whole entry K31R): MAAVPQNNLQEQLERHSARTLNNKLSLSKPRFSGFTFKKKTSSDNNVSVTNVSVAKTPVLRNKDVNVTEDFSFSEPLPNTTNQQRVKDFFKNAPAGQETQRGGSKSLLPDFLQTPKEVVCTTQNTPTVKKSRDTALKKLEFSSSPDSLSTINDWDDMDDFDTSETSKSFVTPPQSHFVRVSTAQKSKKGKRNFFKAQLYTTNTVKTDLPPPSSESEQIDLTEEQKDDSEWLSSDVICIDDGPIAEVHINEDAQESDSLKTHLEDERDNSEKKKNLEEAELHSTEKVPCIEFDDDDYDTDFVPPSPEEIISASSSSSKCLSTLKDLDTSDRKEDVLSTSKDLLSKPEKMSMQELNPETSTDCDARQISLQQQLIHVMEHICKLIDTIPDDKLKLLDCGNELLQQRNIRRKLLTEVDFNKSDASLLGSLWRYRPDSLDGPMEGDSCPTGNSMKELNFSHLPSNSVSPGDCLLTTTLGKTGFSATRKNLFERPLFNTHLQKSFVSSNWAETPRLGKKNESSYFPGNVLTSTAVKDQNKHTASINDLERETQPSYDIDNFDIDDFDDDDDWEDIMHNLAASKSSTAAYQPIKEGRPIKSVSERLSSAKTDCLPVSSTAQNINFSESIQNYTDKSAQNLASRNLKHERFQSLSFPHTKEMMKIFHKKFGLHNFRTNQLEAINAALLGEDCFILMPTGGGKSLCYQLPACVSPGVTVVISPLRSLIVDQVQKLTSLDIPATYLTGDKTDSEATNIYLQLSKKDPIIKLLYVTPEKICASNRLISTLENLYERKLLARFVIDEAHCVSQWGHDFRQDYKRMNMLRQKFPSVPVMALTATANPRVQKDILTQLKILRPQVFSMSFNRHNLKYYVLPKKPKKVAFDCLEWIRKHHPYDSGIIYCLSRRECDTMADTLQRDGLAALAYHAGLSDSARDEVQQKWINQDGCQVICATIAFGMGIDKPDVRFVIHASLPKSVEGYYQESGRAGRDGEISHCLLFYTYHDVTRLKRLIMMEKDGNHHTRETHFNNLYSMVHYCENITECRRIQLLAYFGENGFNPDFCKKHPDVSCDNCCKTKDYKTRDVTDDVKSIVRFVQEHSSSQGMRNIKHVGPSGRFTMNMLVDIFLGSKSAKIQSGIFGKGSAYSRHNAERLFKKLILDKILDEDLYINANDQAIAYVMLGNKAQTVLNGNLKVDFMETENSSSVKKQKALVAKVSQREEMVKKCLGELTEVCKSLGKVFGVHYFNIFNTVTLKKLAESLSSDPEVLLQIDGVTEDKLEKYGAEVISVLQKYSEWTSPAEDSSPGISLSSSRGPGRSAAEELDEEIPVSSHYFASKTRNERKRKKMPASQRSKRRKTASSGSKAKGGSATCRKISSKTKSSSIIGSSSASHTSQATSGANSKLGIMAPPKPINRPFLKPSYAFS

[2] = target: T2, BLM (Homo sapiens, UniProt P54132, K38R)
T2 construct: recombinant, pET28a-sumo in E. coli BL21(DE3); amine-coupled to CM5 chip
T2 sequence (P54132 whole entry K38R): as the sequence (P54132 whole entry K31R) above, with R31K, K38R counted along it

[3] = target: T3, BLM (Homo sapiens, UniProt P54132)
T3 construct: recombinant, pET28a-sumo in E. coli BL21(DE3); amine-coupled to CM5 chip
T3 sequence (P54132 whole entry): as the sequence (P54132 whole entry K31R) above, with R31K counted along it

- Kd [1]: 0.776 µM
- Kd [2]: 0.911 µM
- Kd [3]: 0.251 µM
SMILES: CCc1c2c(nc3ccc(OC(=O)N4CCC(N5CCCCC5)CC4)cc13)-c1cc3c(c(=O)n1C2)COC(=O)[C@]3(O)CC [irinotecan]
